Test results reported in patent US9084798B2, “Use of lanostane and Poria extract in treating diabetes” (Sinphar Tian-Li Pharmaceutical Co., Ltd (Hangzhou), priority 2009, dated 2015).

Key:
3T3-L1 adipocytes [1] = assay: 2-deoxy-glucose uptake in differentiated mature 3T3-L1 adipocytes; type: cell-based, rodent
Protocol: (§1) 3T3-L1 preadipocytes were cultured in Dulbecco's minimal essential medium (DMEM) supplemented with 100 IU/mL penicillin, 100 µg/mL streptomycin, 1% nonessential amino acid and 10% calf serum in 5% CO2 and 95% Air at 37° C. Once the cells have become fully grown, differentiation was induced by treating the cells with differentiation inducers (DMEM containing 0.5 mM 3-isobutyl-1-methylxanthane (IBMX), 1 µM dexamethasone, […], and 10% fetal bovine serum) for two days. The cells were re-fed with DMEM supplemented with 10 µg/mL insulin and 10% FBS for another two days, and then changed to 10% FBS/DMEM without insulin every 2 days for 4-6 days. At this stage, near 90% of the cells expressed the adipocyte phenotype and were ready for the experiments. Before commencing the experiments, the 3T3-L1 cells were rinsed with PBS solution first, and then cultured overnight in the serum-free and insulin-free 0.2% BSA/DMEM culture medium, so as to remove interferences from both serum and insulin.
For the experiment of testing the effects of triterpene compounds on enhancing glucose uptake by 3T3-L1 adipocytes, 3T3-L1 preadipocytes were cultured on 6-well culture dishes, and allowed to grow fully therein before being subjected to differentiation by a differentiation-inducing agent. Once the 3T3-L1 cells became matured and differentiated into adipocytes after 7-12 days, the cells were used for testing glucose uptake. Said adipocytes were firstly placed in a serum-free culture medium (0.2% BSA/DMEM) overnight, followed by cultivation for 2-6 hours in serum-free cell culture media containing different concentrations of triterpene compounds, and then rinsed once with PBS solution before undergoing cultivation in KRP buffer (20 mM HEPES, 137 mM NaCl, 4.7 mM KCl, 1.2 mM MgSO4, 1.2 mM KH2PO4, 2.5 mM CaCl2, and 2 mM pyruvate, pH 7.4 and 0.2% BSA) at 37° C. for 3 hours. Finally, 0.2 μCi/mL of 2-deoxy-D-[^14C]-glucose (2-DG, Amersham Biosciences, Little Chalfont, Bucks, U.K) and 0.2 ml of non-radioactive glucose buffer derived from 0.1 mM 2-DG were used as a substitute for KRP buffer in order to begin the experiment on glucose uptake. After allowing the experiment to run for […], the cells were removed and rinsed with PBS solution to terminate the intake of glucose. Subsequently, the cells were dissolved in 0.2 ml of 0.2% SDS, and 10 μL, of the solution with dissolved cells was transferred into UniFilter plates (Perkim-Elmer, Wellesley, Mass., USA) with filtering bases and dried in a vacuum oven at 37° C., in which each well was added with 30 μL of counting solution, and then analyzed by using a micro-disk liquid scintillation analyzer (TopCount, Packard NXT, Packard BioScience Company, Meriden, Conn., USA). The glucose concentration accumulated in the cells was calculated, and divided by the protein concentration, so as to obtain a glucose uptake rate indicated as nanomoles of glucose uptake in every microgram of cell proteins at every minute (nmol/min/mg). The protein concentration was determined by using the standard Bicinchoninic acid (BCA) protein assay kit (Pierce, Rockford, Ill., USA). The uptake of non-specific glucose was determined by adding 0.2 μCi of L-[14C]-glucose, and then used to substract from the value obtained by the analyzer so as to get a value for the uptake of specific glucose. Therefore, the effects of different concentrations of triterpene compounds on the glucose uptake by 3T3-L1 adipocytes could be determined.

3T3-L1 preadipocytes = assay: 2-deoxy-glucose uptake in 3T3-L1 preadipocytes; type: cell-based, rodent
Protocol: as §1, with “Before commencing the experiments, the 3T3-L1 cells were rinsed with PBS solution first, and then cultured overnight in the serum-free and insulin-free 0.2% BSA/DMEM culture medium, so as to remove interferences from both serum and insulin.” left out
For the experiment of testing the effects of triterpene compounds on enhancing glucose uptake by 3T3-L1 adipocytes, 3T3-L1 preadipocytes were cultured on 6-well culture dishes, and allowed to grow fully therein before being subjected to differentiation by a differentiation-inducing agent. […] The glucose concentration accumulated in the cells was calculated, and divided by the protein concentration, so as to obtain a glucose uptake rate indicated as nanomoles of glucose uptake in every microgram of cell proteins at every minute (nmol/min/mg). […]

[2] = tested on: 3T3-L1 adipocytes with suppressed GLUT4 expression (shG4-30); assay: glucose uptake in adipocytes with suppressed mRNA expression of GLUT4 (shG4-30); type: cell-based, rodent; conditions: different doses of PA
Description: A viral carrier (TRCN0000043630 shRNA, Genomics Research Center, Academia Sinica, R.O.C.) carrying GLUT4-inhibiting RNA was used to infect the 3T3-L1 preadipocytes (shG4-30), in order to create a gene expression having consistent inhibition of GLUT4 expression, and the cell strain was allowed to further differentiate, from which the differentiated adipocytes were used for the experiments.
For the experiment of testing the effects of triterpene compounds on enhancing glucose uptake by 3T3-L1 adipocytes, 3T3-L1 preadipocytes were cultured on 6-well culture dishes, and allowed to grow fully therein before being subjected to differentiation by a differentiation-inducing agent. […] Subsequently, the cells were dissolved in 0.2 ml of 0.2% SDS, and 10 μL, of the solution with dissolved cells was transferred into UniFilter plates (Perkim-Elmer, Wellesley, Mass., USA) with filtering bases and dried in a vacuum oven at 37° C., in which each well was added with 30 μL of counting solution, and then analyzed by using a micro-disk liquid scintillation analyzer (TopCount, Packard NXT, Packard BioScience Company, Meriden, Conn., USA). The glucose concentration accumulated in the cells was calculated, and divided by the protein concentration, so as to obtain a glucose uptake rate indicated as nanomoles of glucose uptake in every microgram of cell proteins at every minute (nmol/min/mg). […]

GLUT4 [3] = assay: GLUT4 protein expression by Western blot in 3T3-L1 adipocytes; type: cell-based, rodent; conditions: different doses of PA for 24 hours
Protocol: For the experiment of testing the effects of triterpene compounds on enhancing the GLUT protein expression in 3T3-L1 adipocytes, the aforesaid differentiated and mature 3T3-L1 adipocytes were cultured overnight in a serum-free cell culture medium, and then further cultured in serum-free cell culture media containing different concentrations of triterpene compounds for 24 hours. This was followed by rinsing the cells with PBS solution, and allowing the cells to lyse in 0.2 mL lysis buffer (1% NP-40, 150 mM NaCl, 0.1% SDS, 50 mM Tris-HCl pH 7.6, 10 mM EDTA, 0.5% deoxycholate, 1 mM PMSF, 1 mM Na3VO4, 10 mM NaF, 10 mM β-glycerophosphate, 10 g/mL protease inhibitor and phosphotase inhibitor cocktails) for 30 min at 4° C. An equal amount of protein from each sample was separated by sodium dodecyl sulfate (SDS)-10% polyacrylamide gel electrophoresis (PAGE) and transblotted onto polyvinylidene difluoride (PVDF) membranes (Millipore, Bedford, Mass., USA). […] Each sample of proteins was treated with a chemiluminescence kit (ECL, Amersham, U.K.) before being exposed and processed into X-ray film, and then quantitatively analyzed by using computer software.

GLUT4 [4] = assay: GLUT4 mRNA expression by real-time Q-PCR in 3T3-L1 adipocytes; type: cell-based, rodent; conditions: 1 μM of PA, 24 hours
Protocol: Real-time Q-PCR was performed in order to evaluate mRNA expression of GLUT proteins in 3T3-L1 adipocytes under different concentrations of triterpene compounds. Firstly, the fully differentiated 3T3-L1 adipocytes were mixed with different concentrations of triterpene compounds and left for 24 hours, before removing the cell culture medium and using the Trizol buffer (Invitrogen, Irvine, Calif., USA) to obtain total RNA from the cells. Afterwards, 1 μg of RNA sample was taken therefrom, and a High-Capacity cDNA Reverse Transcription Kit (Applied Biosystems, Darmstadt, Germany) was used to reverse transcribe mRNA in the sample into cDNA. Primers were specifically designed for GLUT1, GLUT4, and β-actin, and the SYBR Green Q-PCR analyzer (Applied Biosystems, Foster City, Calif., USA) was used to expand the gene for detection (Glut1 & 4) and reference gene (β-actin), before relative gene expression values were calculated by the ΔΔCT method using the StepOne v2.0 software (Applied Biosystems).

GLUT4 [5] = assay: GLUT4 translocation to plasma membrane, centrifugation fractions and Western blot; type: cell-based, rodent; conditions: 2 hours
Protocol: In the mechanism of insulin enhancing glucose uptake by adipocytes or muscle cells, the translocation of GLUT4 from intracellular organelles to plasma membrane (PM) actually plays a vital rol therein, thus the effects of triterpene compounds on enhancing the translocation of GLUT4 to plasma membrane in 3T3-L1 adipocytes were tested here. The differentiated and mature 3T3-L1 adipocytes were cultured overnight in a serum-free cell culture medium, and then further cultured in serum-free cell culture media containing different concentrations of triterpene compounds for 2 hours. This was followed by high-speed centrifugation at different rotation speeds (16,000 g-200,000 g) in order to separate the cellular plasma membrane fraction from the low density microsome (LDM) [Liu, L. Z. et. al.; Mol. Biol. Cell 17, (5), 2322-2330, 2006]. Western blot analysis was performed by using a monoclonal antibody for GLUT4, so as to observe whether there are any effects from different concentrations of triterpene compounds on the translocation of GLUT4 from cellular LDM to PM in 3T3-L1 adipocytes.

HA-GLUT4-GFP = assay: GLUT4 translocation to plasma membrane, HA-GLUT4-GFP fluorescence ratio; type: cell-based, rodent; conditions: 1.0 μM of PA, 2 hours; rhodamine/GFP fluorescence ratio
3T3-L1 adipocytes [6] = assay: accumulation of triglycerides in 3T3-L1 adipocytes (Oil-Red O staining); type: cell-based, rodent; conditions: 24 hours after administering different doses of PA
Protocol: (§2) For the experiment of testing the effects of triterpene compounds on the accumulation of triglycerides and the release of glycerol in 3T3-L1 adipocytes, the differentiated and mature 3T3-L1 adipocytes were cultivated overnight in a serum-free cell culture medium, and then further cultivated in serum-free cell culture media containing different concentrations of triterpene compounds for 24 hours. The culture media were collected and tested for the release of glycerol by using a glycerol assay kit (Randox Laboratories, Antrim, UK), to determine whether different concentrations of triterpene compounds had any effects on the release of glycerol from lipid breakdown in 3T3-L1 adipocytes. The level of triglycerides in the adipocytes were determined by Oil-Red O staining (Ramirez-Zacarias, J. L. et. al.; Histochemistry 97, (6), 493-497, 1992). The oil droplets formed by the accumulation of lipids in the cells were stained, rinsed twice with 60% isopropanol, and then extracted in 100% isopropanol before being quantified at the absorbance of 490 nm. The readings were compared with that from the adipocytes without being given triterpene compounds, in order to evaluate the effects of different concentrations of triterpene compounds on the accumulation of triglycerides in the adipocytes.

3T3-L1 adipocytes [7] = assay: release of glycerol from 3T3-L1 adipocytes (glycerol assay kit); type: cell-based, rodent; conditions: 24 hours after administering different doses of PA
Protocol: as §2

in vitro adipocytes = conditions: cited from earlier work
mice = conditions: cited from earlier work
[8] = 0.01 μM, two hours after giving the compound, versus untreated control

For `C=C(CC[C@@H](C(=O)O)[C@H]1[C@H](O)C[C@@]2(C)C3=C(CC[C@]12C)[C@@]1(C)CC[C@H](OC(C)=O)C(C)(C)[C@@H]1CC3)C(C)C` [PA, pachymic acid], the “glucose uptake increased to” value (3T3-L1 adipocytes [1]; [8]) was 165.89%, the “glucose uptake increased to” value (3T3-L1 adipocytes [1]; PA at 1 μM, acting two hours) was 209.84% and the “enhancement of glucose uptake (FIG. 4)” value (3T3-L1 adipocytes [1]; differentiated adipocytes) was “only effective for enhancing glucose uptake in differentiated adipocytes”. The “enhancement of glucose uptake (FIG. 4)” value (3T3-L1 preadipocytes) was “not for preadipocytes”, the “glucose uptake in adipocytes with low expression of GLUT4 (FIG. 7B)” value [2] was “did not greatly enhance the glucose uptake” and the “protein expression of GLUT4 (FIG. 5)” value (GLUT4 [3]) was “effective for enhancing the protein expression of GLUT4”. For the same compound, the “gene expression of GLUT4 elevated to (FIG. 6)” value (GLUT4 [4]) was 228%, the “amount of GLUT4 in the plasma membrane increased to (FIG. 8A)” value (GLUT4 [5]; 0.01 μM of PA) was 141% and the “amount of GLUT4 in the plasma membrane increased to (FIG. 8A)” value (GLUT4 [5]; 1 μM of PA) was 328%. The “translocation of GLUT4 to plasma membrane elevated (FIG. 8B)” value (HA-GLUT4-GFP) was 2.71 fold, the “accumulation of triglycerides (FIG. 9)” value (3T3-L1 adipocytes [6]) was “exceeded 137%” and the “release of glycerol lowered to” value (3T3-L1 adipocytes [7]) was “approximately 70 % of the original level”.

With `C=C(CC[C@@H](C(=O)O)[C@H]1[C@H](O)C[C@@]2(C)C3=CC[C@H]4C(C)(C)C(=O)CC[C@]4(C)C3=CC[C@]12C)C(C)C` [PPA, polyporenic acid C] the “glucose uptake increased to” value (3T3-L1 adipocytes [1]; [8]) was 147.9%.

For `C=C(CC[C@@H](C(=O)O)[C@H]1[C@H](O)C[C@@]2(C)C3=C(CC[C@]12C)[C@@]1(C)CC[C@H](O)C(C)(C)[C@@H]1CC3)C(C)C` [TA, tumulosic acid], the “glucose uptake increased to” value (3T3-L1 adipocytes [1]; [8]) was 142.5%.

For `CC(C)=CCC[C@@H](C(=O)O)[C@H]1CC[C@@]2(C)C3=CC[C@H]4C(C)(C)[C@@H](O)CC[C@]4(C)C3=CC[C@]12C` [dehydrotrametenolic acid], the effective concentration (in vitro adipocytes) is listed as 10^−5 M, the effective dose (mice; mice) is listed as 110 mg/kg and the “effective dose for use in the human body” value (mice; researchers' conclusion from the mouse dose) is listed as “more than 700 mg”.

In the case of `O=C(CCc1ccc(O)cc1)c1c(O)cc(O)cc1O` [phloretin (PT), phloretin, reference compound], the “glucose uptake after phloretin (FIG. 4)” value (3T3-L1 adipocytes [1]; adipocytes) is reported as “significantly inhibited” and the “glucose uptake after phloretin (FIG. 4)” value (3T3-L1 preadipocytes) is reported as “significantly inhibited”.

With insulin [reference compound] the “effect on glucose uptake” value (3T3-L1 adipocytes [1]; 100 nM insulin) was “effective for increasing glucose uptake”.
